From PMC6930522, “Structure-Based Pharmacophore Modeling, Virtual Screening, Molecular Docking and Biological Evaluation for Identification of Potential Poly (ADP-Ribose) Polymerase-1 (PARP-1) Inhibitors” (Molecules, 2019)
Where two headings read alike, the source gives them in different places.

Legend:
[1] = biological target: T1, PARP-3 (Homo sapiens, UniProt Q9Y6F1); assay: In vitro PARP inhibition assay (PARP-3); type: biochemical; details: Table 4
T1 construct: purchased Trevigan (Gaithersburg, MD, USA)
T1 sequence (Q9Y6F1 1-533): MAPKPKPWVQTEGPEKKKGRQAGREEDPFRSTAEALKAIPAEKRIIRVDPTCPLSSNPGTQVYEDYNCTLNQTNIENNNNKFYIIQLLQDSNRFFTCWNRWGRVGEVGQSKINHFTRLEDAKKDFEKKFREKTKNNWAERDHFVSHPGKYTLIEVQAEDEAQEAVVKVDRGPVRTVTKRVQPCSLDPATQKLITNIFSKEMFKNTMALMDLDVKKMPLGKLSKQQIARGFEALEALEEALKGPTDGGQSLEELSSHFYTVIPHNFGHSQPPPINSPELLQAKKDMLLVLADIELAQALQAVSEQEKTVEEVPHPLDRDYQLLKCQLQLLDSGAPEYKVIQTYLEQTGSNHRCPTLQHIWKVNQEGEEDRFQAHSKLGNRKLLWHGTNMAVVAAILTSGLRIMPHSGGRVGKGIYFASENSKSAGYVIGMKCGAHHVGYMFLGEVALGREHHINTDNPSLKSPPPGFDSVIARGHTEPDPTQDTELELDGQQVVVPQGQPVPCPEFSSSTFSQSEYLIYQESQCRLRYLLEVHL
Experimental: (§1) Purified recombinant human PARPs from Trevigan (Gaithersburg, MD, USA) was used to determine the IC50 values of a PARP inhibitor. The PARP enzyme assay was set up on ice in a volume of 100 μL consisting of 50 mM Tris–HCl (pH 8.0), 2 mM MgCl2, 30 μg/mL of DNase activated herring sperm DNA (Sigma, MO, USA), 30 μM [^3H]nicotinamide adenine dinucleotide (67 mCi/mmol), 75 μg/mL PARP enzyme and various concentrations of the compounds to be tested. The reaction was initiated by incubating the mixture at 25 °C. After 15 min of incubation, the reaction was terminated by adding 500 μL of ice cold 20% (w/v) trichloroacetic acid. The formed precipitate was transferred onto a glass fiber filter (Packard Unifilter–GF/B) and washed three times with ethanol. After the filter is dried, the radioactivity is determined by scintillation counting.

[2] = biological target: T2, PARP-2 (Homo sapiens, UniProt Q9UGN5); assay: In vitro PARP inhibition assay (PARP-2); type: biochemical
T2 construct: purchased Trevigan (Gaithersburg, MD, USA)
T2 sequence (Q9UGN5 whole entry): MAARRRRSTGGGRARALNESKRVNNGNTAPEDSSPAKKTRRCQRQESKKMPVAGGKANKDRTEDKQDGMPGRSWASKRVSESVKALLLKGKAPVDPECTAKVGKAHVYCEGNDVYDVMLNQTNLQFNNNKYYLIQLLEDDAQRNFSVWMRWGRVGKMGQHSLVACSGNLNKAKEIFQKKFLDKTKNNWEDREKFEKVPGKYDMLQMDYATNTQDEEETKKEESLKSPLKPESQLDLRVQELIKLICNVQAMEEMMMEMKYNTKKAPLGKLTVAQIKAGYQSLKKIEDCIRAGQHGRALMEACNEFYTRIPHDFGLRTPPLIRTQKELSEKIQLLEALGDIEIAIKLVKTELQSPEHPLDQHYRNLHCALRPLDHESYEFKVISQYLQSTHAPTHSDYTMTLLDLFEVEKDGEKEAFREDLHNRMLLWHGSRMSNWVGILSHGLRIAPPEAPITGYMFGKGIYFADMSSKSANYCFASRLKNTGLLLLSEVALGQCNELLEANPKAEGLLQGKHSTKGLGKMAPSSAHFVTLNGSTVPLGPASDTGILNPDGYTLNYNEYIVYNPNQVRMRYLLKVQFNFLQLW
Experimental: as §1

[3] = tested on: human lung cancer A549 cells; assay: MTT assay, proliferation of A549 cells; type: cell-based; details: 48 h, different concentrations, Figure 5
Experimental: A549 cells were seeded in a 96-well culture plate and allowed to grow overnight. Then, cells were exposed to different concentrations of compounds 1–4 and incubated at 37 °C for 48 h. After that, an MTT stock solution (0.5 mg/mL) was added into each well and the plate was incubated for 4 h. The 150 µL of DMSO was used for fixing the MTT-treated cells and the absorbance of each sample was recorded at 490 nm with a Microplate Spectrophotometer.

[4] = biological target: T3, PARP-1 (Homo sapiens, UniProt P09874); assay: In vitro PARP inhibition assay (PARP-1); type: biochemical; details: Table 3; PARP-1 enzyme assay, mean ± SD, three independent experiments
T3 construct: purchased Trevigan (Gaithersburg, MD, USA)
T3 sequence (P09874 whole entry): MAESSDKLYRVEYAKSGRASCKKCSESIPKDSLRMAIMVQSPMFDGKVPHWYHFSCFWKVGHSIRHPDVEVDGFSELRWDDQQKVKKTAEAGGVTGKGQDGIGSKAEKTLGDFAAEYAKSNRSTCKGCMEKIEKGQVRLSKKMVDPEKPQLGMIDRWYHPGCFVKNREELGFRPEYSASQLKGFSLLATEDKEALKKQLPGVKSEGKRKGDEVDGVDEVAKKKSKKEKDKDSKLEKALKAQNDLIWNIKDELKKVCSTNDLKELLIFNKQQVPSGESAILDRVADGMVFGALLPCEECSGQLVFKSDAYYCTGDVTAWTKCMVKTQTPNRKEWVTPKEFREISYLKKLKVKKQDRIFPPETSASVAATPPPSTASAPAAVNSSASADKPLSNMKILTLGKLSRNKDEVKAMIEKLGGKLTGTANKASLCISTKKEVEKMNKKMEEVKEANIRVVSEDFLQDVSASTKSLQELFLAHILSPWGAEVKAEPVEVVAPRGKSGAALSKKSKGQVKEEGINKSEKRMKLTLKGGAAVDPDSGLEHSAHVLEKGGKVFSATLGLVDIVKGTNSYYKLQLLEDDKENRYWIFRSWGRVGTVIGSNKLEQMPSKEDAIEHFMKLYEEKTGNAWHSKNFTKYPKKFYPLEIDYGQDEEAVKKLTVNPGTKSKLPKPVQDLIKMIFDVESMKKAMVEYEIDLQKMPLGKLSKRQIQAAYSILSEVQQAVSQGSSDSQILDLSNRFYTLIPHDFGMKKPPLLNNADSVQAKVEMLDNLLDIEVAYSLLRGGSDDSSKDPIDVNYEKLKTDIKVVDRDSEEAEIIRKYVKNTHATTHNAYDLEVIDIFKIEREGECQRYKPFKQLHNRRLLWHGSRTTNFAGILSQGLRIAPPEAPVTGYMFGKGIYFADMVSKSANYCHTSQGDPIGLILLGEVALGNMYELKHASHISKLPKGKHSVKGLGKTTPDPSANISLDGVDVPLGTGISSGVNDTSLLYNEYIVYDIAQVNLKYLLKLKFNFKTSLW
Experimental: as §1

SMILES | IC50 [1] | IC50 [2] | Inhibition of growth/proliferation of A549 cells [3] | IC50 [4] | IC50 ([2]; Table 4, read-out: PARP-2) | PARP-2/PARP-1 ([2]; selectivity ratio of IC50 values)
NC(=O)c1cccc2c1C(=O)N(C1CCN(Cc3ccc(F)cc3)CC1)C2 [Compound 1] | > 100000 nM | > 35000 nM | stronger anti-proliferation effects than compounds 2 and 3 | – | – | –
CN(C)CCNc1ccc2[nH]c(=O)c3ccccc3c2n1 [Compound 2] | – | – | – | 190 ± 26 nM | – | –
CC(=O)Nc1cccc(Cn2c(=O)[nH]c(=O)c3ccccc32)c1 [Compound 3] | – | – | – | 160 ± 13 nM | – | –
CCc1ccc(-c2nc3cccc4c3n2CCNC4=O)cc1 [Compound 4] | > 100000 nM | – | stronger anti-proliferation effects than compounds 2 and 3 | 65 ± 8 nM | > 35000 nM | >1000
Cc1nc2c(O)cccc2c(=O)[nH]1 [NU1025, reference compound] | – | – | – | 400 ± 35 nM | – | –
